Measured values reported in patent US20250360132A1, “METHODS OF ADMINISTERING MYOSIN INHIBITORS” (MYOKARDIA, INC., priority 2022, published 2025).

Legend:
[1] = test system: organic anion transporting polypeptides (OATPs); test: In vitro transporter inhibition; format: in vitro ADME
pregnant rabbits = test: Embryo-fetal development study in rabbits; format: in vivo, rabbit
Procedure: Visceral findings consisted of malformations of the great vessels (dilatation of pulmonary trunk and/or aortic arch). Skeletal malformations consisted of higher incidences of fused sternebrae at ≥1.2 mg/kg/day. Plasma exposure (AUC) at the no-effect dose for embryo-fetal development in rabbits is 0.4 times the exposure in humans at the MRHD.

human lymphocyte = test: Human in vitro lymphocyte electrogenicity assay; format: cell-based
Source text: (§1) Mavacamten was not genotoxic in a bacterial reverse mutation test (Ames test), a human in vitro lymphocyte […] assay, or a rat in vivo micronucleus assay.

rat = test: Rat in vivo micronucleus assay
Source text: as §1

MATE2-K = MATE2-K (Homo sapiens, UniProt Q86VL8); test: In vitro transporter inhibition; format: in vitro ADME
MATE2-K, sequence (Q86VL8 1-566 isoform Q86VL8-3): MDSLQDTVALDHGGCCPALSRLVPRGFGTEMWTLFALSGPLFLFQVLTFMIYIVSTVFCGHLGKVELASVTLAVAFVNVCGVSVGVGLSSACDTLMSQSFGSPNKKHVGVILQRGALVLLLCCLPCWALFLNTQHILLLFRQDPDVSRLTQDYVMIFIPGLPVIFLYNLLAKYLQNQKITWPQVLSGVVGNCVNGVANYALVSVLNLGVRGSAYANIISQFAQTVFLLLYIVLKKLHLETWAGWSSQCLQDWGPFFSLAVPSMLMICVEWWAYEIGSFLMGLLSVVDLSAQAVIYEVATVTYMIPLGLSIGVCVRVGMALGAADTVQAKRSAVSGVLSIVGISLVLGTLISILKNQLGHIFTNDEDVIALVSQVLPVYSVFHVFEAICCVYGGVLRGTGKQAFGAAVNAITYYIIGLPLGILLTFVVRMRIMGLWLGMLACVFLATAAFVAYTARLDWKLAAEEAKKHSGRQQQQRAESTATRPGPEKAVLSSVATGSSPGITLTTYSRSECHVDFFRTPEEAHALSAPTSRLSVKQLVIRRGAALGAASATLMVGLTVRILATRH

BCRP = BCRP (Homo sapiens, UniProt Q9UNQ0); test: In vitro transporter inhibition; format: in vitro ADME
BCRP, sequence (Q9UNQ0 whole entry): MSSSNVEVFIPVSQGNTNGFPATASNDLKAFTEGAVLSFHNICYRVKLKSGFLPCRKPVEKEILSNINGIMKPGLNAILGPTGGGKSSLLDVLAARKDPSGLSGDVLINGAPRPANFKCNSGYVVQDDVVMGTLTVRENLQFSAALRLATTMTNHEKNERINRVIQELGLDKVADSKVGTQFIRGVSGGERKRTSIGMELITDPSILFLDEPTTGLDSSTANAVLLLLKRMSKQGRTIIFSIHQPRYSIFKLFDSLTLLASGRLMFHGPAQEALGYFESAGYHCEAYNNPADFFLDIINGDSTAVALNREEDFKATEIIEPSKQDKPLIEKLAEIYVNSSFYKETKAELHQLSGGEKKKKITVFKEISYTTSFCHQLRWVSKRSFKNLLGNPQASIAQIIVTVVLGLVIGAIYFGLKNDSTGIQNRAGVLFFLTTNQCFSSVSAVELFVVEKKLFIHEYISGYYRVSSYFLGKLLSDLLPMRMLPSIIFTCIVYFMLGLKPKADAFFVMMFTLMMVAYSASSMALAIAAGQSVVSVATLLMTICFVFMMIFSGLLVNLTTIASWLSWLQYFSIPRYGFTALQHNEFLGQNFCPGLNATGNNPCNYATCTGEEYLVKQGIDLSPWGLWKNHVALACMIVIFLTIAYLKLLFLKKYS

P-gp = P-gp (Homo sapiens, UniProt P08183); test: In vitro transporter inhibition; format: in vitro ADME
rats = test: Animal toxicology, rats; format: in vivo
Procedure: The safety of mavacamten has been evaluated in rats and dogs at multiple dose levels (0.06 to 10 mg/kg/day) orally. […] Plasma exposures (AUC) at the NOAEL in rats and dogs were 0.1 and 0.3 times, respectively, human exposure (AUC) at the MRHD.

[2] = test system: organic cation transporters (OCTs); test: In vitro transporter inhibition; format: in vitro ADME
healthy volunteers = test: Cardiac electrophysiology (QTc) in healthy volunteers; format: in vivo, human
Source text: The mechanism of the QT prolongation effect is not known.

Solubility = format: physicochemical
BSEP = BSEP (Homo sapiens, UniProt O95342); test: In vitro transporter inhibition; format: in vitro ADME
BSEP, sequence (O95342 whole entry): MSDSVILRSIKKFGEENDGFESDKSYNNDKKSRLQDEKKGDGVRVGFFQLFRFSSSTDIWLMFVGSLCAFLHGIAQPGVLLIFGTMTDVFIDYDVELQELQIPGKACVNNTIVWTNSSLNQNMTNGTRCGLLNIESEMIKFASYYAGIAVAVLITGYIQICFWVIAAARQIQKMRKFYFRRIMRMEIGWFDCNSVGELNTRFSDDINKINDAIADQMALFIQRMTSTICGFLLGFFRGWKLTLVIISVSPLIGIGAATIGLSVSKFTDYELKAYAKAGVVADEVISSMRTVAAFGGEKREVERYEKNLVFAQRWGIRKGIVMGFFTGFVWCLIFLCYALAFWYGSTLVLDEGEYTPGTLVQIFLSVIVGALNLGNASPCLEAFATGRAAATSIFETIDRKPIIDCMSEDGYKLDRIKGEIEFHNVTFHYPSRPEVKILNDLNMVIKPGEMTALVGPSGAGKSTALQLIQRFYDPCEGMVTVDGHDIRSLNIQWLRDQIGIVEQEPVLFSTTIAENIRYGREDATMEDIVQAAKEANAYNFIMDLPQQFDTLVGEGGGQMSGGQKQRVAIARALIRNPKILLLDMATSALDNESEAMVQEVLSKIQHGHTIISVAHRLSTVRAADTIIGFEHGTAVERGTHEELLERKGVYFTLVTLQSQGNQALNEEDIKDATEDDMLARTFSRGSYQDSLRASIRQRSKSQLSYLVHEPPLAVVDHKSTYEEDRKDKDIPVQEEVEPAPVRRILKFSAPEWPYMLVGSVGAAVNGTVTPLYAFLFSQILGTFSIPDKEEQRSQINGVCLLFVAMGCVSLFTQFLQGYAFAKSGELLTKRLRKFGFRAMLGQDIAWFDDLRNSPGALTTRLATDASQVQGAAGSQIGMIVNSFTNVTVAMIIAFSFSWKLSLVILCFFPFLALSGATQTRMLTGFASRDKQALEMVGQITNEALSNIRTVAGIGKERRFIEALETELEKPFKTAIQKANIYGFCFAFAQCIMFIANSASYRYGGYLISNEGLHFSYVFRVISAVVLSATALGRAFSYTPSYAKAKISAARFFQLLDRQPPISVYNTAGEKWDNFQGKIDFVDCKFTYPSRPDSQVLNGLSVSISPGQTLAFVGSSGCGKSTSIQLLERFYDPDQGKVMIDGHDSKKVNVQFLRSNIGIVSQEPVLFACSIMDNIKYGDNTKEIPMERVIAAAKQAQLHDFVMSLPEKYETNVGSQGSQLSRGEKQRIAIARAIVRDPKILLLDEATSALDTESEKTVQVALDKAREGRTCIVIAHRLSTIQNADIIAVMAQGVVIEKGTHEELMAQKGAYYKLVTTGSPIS

CYP3A4 [3] = molecular target: T1, CYP3A4 (Homo sapiens, UniProt P08684); test: Clinical DDI with moderate CYP3A4 inhibitor verapamil; format: in vivo; design: host or cells: in silico (Simcyp v19 where stated); details: mavacamten 25 mg with verapamil sustained release 240 mg; CYP2C19 IMs and NMs
T1 sequence (P08684 whole entry): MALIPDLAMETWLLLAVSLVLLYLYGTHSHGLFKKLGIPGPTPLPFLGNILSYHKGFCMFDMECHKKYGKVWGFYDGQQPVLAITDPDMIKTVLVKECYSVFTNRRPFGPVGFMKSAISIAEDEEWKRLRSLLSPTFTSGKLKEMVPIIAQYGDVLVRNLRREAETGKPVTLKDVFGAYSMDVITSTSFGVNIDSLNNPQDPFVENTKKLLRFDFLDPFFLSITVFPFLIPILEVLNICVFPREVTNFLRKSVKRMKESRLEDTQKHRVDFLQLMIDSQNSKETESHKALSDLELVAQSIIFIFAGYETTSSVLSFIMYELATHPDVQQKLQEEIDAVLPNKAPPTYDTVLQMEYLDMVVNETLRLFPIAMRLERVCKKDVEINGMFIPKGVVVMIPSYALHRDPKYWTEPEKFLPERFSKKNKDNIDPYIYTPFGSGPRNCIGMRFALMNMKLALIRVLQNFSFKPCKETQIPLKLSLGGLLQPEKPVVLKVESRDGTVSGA

CYP2C19 [4] = molecular target: T2, CYP2C19 (Homo sapiens, UniProt P33261); test: Clinical DDI with weak CYP2C19 inhibitor omeprazole; format: in vivo; design: host or cells: in silico (Simcyp v19); details: mavacamten 15 mg with omeprazole 20 mg once daily; healthy CYP2C19 NMs and RMs
T2 sequence (P33261 whole entry): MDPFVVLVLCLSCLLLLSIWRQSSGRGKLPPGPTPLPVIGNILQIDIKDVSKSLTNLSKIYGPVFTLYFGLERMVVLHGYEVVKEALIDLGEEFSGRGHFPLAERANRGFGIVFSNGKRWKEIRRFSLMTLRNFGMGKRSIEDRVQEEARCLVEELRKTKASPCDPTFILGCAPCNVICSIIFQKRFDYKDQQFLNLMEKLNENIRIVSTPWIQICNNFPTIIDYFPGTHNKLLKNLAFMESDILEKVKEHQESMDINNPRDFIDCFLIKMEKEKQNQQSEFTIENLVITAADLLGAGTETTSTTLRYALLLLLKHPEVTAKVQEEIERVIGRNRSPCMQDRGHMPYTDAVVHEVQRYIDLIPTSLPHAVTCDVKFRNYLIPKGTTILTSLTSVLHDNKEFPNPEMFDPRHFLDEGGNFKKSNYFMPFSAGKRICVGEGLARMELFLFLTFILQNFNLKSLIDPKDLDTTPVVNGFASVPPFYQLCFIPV

CYP2B6 [5] = test: In vitro CYP induction; format: in vitro ADME
Source text: (§2) Mavacamten is a CYP2B6 inducer.

CYP2D6 = CYP2D6 (Homo sapiens, UniProt P10635); test: In vitro CYP inhibition; format: in vitro ADME; details: at clinically relevant concentrations
CYP2D6, sequence (P10635 whole entry): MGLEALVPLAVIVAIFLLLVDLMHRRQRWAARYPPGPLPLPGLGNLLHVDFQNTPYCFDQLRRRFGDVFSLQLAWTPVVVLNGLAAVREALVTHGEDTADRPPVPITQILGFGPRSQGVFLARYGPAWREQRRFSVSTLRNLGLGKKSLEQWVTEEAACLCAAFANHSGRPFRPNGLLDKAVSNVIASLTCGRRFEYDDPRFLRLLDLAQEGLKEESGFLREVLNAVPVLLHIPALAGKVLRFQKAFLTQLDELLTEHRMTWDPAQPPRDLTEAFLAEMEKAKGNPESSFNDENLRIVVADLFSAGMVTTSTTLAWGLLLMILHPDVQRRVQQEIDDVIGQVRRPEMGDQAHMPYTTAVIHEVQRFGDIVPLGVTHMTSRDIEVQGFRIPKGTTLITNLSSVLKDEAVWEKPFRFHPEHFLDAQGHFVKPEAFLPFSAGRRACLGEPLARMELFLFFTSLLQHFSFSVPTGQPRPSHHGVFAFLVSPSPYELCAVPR
Source text: as §2

CYP3A4 [6] = molecular target: T1, CYP3A4; test: In vitro CYP inhibition; format: in vitro ADME; details: at clinically relevant concentrations
Source text: as §2

CYP2C19 [7] = molecular target: T2, CYP2C19; test: In vitro CYP inhibition; format: in vitro ADME; details: at clinically relevant concentrations
Source text: as §2

CYP1A2 = CYP1A2 (Homo sapiens, UniProt P05177); test: In vitro CYP inhibition; format: in vitro ADME
CYP1A2, sequence (P05177 whole entry): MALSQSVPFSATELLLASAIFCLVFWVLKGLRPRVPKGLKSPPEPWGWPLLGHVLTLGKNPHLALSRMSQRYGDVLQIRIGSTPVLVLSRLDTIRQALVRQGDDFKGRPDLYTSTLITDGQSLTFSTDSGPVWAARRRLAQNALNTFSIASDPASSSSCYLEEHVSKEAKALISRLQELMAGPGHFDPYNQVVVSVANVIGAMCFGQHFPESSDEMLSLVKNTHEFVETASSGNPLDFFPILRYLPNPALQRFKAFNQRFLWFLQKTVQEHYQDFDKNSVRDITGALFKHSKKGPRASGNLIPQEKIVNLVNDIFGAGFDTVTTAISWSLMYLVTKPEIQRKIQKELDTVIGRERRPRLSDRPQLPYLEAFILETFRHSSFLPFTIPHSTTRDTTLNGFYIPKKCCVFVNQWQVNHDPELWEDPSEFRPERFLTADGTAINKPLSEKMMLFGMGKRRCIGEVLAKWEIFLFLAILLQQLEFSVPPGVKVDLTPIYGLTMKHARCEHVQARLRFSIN
Source text: as §2

CYP2C9 = CYP2C9 (Homo sapiens, UniProt P11712); test: In vitro CYP inhibition; format: in vitro ADME; details: at clinically relevant concentrations
Source text: as §2

CYP2C8 = CYP2C8 (Homo sapiens, UniProt P10632); test: In vitro CYP inhibition; format: in vitro ADME
CYP2C8, sequence (P10632 whole entry): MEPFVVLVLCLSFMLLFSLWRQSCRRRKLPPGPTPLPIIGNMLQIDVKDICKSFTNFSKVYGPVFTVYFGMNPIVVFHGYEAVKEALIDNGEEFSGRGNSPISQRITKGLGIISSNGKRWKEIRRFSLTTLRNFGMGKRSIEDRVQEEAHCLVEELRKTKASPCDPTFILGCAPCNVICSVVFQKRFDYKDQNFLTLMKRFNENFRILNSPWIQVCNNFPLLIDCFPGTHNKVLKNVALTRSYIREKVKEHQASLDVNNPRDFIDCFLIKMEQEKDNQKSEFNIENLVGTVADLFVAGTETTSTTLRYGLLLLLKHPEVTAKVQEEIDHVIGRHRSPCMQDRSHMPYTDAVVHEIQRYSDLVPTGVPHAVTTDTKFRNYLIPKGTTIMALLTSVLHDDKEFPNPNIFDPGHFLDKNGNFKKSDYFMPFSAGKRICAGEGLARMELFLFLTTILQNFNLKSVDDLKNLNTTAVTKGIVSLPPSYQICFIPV
Source text: as §2

CYP2B6 [8] = molecular target: CYP2B6 (Homo sapiens, UniProt P20813); test: In vitro CYP inhibition; format: in vitro ADME
Source text: as §2

CYP2C19 [9] = test: Pharmacogenomics: CYP2C19 PMs vs NMs, single dose; format: in vivo, human; details: single dose of 15 mg mavacamten
Source text: Mean half-life is prolonged in CYP2C19 PMs compared to NMs (23 days vs. 6 to 9 days, respectively).
Polymorphic CYP2C19 is the main enzyme involved in the metabolism of MAVACAMTEN. An individual carrying two normal function alleles is a NM (e.g., *1/*1). An individual carrying two no function alleles is a PM (e.g., *2/*2, *2/*3, *3/*3).

[10] = test system: patients with HCM and healthy subjects; test: Human experience of overdose / high doses; format: in vivo
CYP2C19 [11] = molecular target: T2, CYP2C19; test: Metabolism, contribution of CYP2C19; format: in vitro ADME
Source text: Mavacamten is extensively metabolized, primarily through CYP2C19 (74%), CYP3A4 (18%), and CYP2C9 (8%).
Statement of Purpose: Mavacamten is a first-in-class, selective, allosteric, and reversible cardiac myosin inhibitor in development for the treatment of adults with symptomatic obstructive hypertrophic cardiomyopathy. Mavacamten is hepatically metabolized predominantly via CYP2C19 (74%), CYP3A4 (18%) and CYP2C9 (8%). A previously developed fit-for-purpose physiologically based pharmacokinetic (PBPK) model was applied to explore the induction effects of a strong CYP3A4/CYP2C19 inducer-rifampin, as well as a strong CYP3A4 inducer-carbamazepine, on mavacamten exposures.

SMILES: CC(C)n1c(=O)cc(N[C@@H](C)c2ccccc2)[nH]c1=O [mavacamten, (S)-3-Isopropyl-6-((1-phenylethyl)amino)pyrimidine-2,4(1H,3H)-dione]
- Inhibition of OATPs [1]: does not inhibit
- Embryo-fetal findings (risk summary) (pregnant rabbits; both rabbits and rats, dose exposures similar to that at the MRHD): increases in visceral and skeletal malformations
- Doses at which fetal malformations (visceral and skeletal) were increased (pregnant rabbits; oral, period of organogenesis): ≥ 1.2 mg/kg/day
- Plasma exposure (AUC) at the no-effect dose for embryo-fetal development vs humans at the MRHD (pregnant rabbits; rabbits): 0.4 times
- Genotoxicity, human in vitro lymphocyte electrogenicity assay (human lymphocyte): not genotoxic
- Genotoxicity, rat in vivo micronucleus assay (rat): not genotoxic
- Inhibition of MATE2-K (MATE2-K): does not inhibit
- Inhibition of BCRP (BCRP): does not inhibit
- Inhibition of P-gp (P-gp): does not inhibit
- Plasma exposure (AUC) at the NOAEL vs human exposure at the MRHD (rats): 0.1 times
- Inhibition of OCTs [2]: does not inhibit
- QTc interval effect, multiple doses (healthy volunteers; doses up to 25 mg once daily): concentration-dependent increase in the QTc interval
- QTc interval effect, single-dose studies (healthy volunteers; similar exposures): No acute QTc changes
- Solubility in DMSO and NMP (Solubility): freely soluble
- Solubility in methanol and ethanol (Solubility): sparingly soluble
- Solubility in water and aqueous buffers (Solubility; pH 2-10): practically insoluble
- Inhibition of BSEP (BSEP): does not inhibit
- Increase in mavacamten AUCinf (CYP3A4 [3]): 15%
- Increase in mavacamten Cmax (CYP3A4 [3]): 52%
- Increase in mavacamten AUCinf (CYP2C19 [4]): 48%
- Induction of CYP2B6 (CYP2B6 [5]): inducer
- Inhibition of CYP2D6 (CYP2D6): not an inhibitor
- Inhibition of CYP3A4 (CYP3A4 [6]): not an inhibitor
- Inhibition of CYP2C19 (CYP2C19 [7]): not an inhibitor
- Inhibition of CYP1A2 (CYP1A2): does not inhibit
- Inhibition of CYP2C9 (CYP2C9): not an inhibitor
- Inhibition of CYP2C8 (CYP2C8): does not inhibit
- Inhibition of CYP2B6 (CYP2B6 [8]): does not inhibit
- Increase in AUCinf in CYP2C19 PMs compared to NMs (CYP2C19 [9]): 241%
- Increase in Cmax in CYP2C19 PMs compared to NMs (CYP2C19 [9]): 47%
- participants experiencing 20% or greater reductions in LVEF ([10]; healthy subjects, 25 mg dose level, up to 25 days): 3 of 8
- Outcome of accidental ingestion ([10]; infant, three 15 mg capsules): infant death
- Events after single dose of 144 mg ([10]; one subject with HCM, subject recovered): serious adverse events including vasovagal reaction, hypotension, and asystole
- Metabolism through CYP2C19 (CYP2C19 [11]): 74%
